Data: paper PMC4801149 (Drug Design, Development and Therapy, 2016)
Read-outs that look alike come from different tables or passages of the source.

Columns and labels:
[1] = target: other CDKs; assay: Kinase assay in vitro, other CDKs overall; type: biochemical; conditions: read-out: IC50 values for inhibition of other CDKs; CDKs other than CDK7
[2] = tested on: BGC823 cells; assay: Transwell cell migration assay; type: cell-based, Human; conditions: 24 hours, dose-dependent, P<0.05
[3] = tested on: BGC823 cells; assay: Matrigel-coated transwell invasion assay; type: cell-based, Human; conditions: 24 hours, matrigel-coated transwells, dose-dependent, P<0.05
[4] = tested on: BGC823 cells; assay: Apoptosis by flow cytometry; type: cell-based, Human; conditions: compared to control, dose- and time-dependent, P<0.05
[5] = tested on: BGC823 cells; assay: Western blot of apoptosis and cell cycle proteins; type: cell-based, Human; conditions: P<0.05
[6] = tested on: BGC823 cells; assay: Cell cycle distribution by flow cytometry; type: cell-based, Human
[7] = tested on: RNA polymerase II CTD serine 5 (P-Ser5), CDK7 phosphorylation site; assay: Immunoblotting of RNA polymerase II CTD Ser5 phosphorylation; type: cell-based, Human; conditions: BGC823 whole cell lysates, 4 hours
[8] = tested on: BGC823 xenograft
[9] = cited from earlier work

SMILES | IC50 [1] [nM] | cell migration ability [2] | cell invasion ability [3] | apoptotic cells [4] | XIAP expression [5] | cyclin D1 expression [5] | Bax expression ([5]; compared to control) | Bcl-2 level ([5]; compared to control) | caspase-3 expression ([5]; compared to control) | cell population in S and G2/M phases [6] | cells in G0/G1 [6] | phosphorylation of the RNA polymerase II CTD at serine 5 (P-Ser5) [7] | mice body weights, difference between groups ([8]; 14-day observation, 10 or 20 mg/kg/d ip) | mice died in additional 30-day survival observation ([8]; BS-181 10 mg/kg/d ip for 14 days, six of ten) [%] | mice died in additional 30-day survival observation ([8]; BS-181 20 mg/kg/d ip for 14 days, three of ten) [%] | toxicity ([8]; daily dose of 10 mg/kg or 20 mg/kg ip, 14 days) | tumor growth ([8]; ip twice daily, 10 or 20 mg/kg/d, 14 days, dose-dependent, compared to control, P<0.05) | tolerability ([9]; dose of 10 mg/kg/d or 20 mg/kg/d, BALB/c-nu mice) | maximum tolerated single dose ([9]; given intraperitoneally) [mg/kg/day] | mice died in additional 30-day survival observation ([8]; roscovitine 20 mg/kg/d for 14 days, five of ten) [%]
CC(C)c1cnn2c(NCc3ccccc3)cc(NCCCCCCN)nc12 [BS-181] | > 1000 | significantly inhibited | significantly inhibited | Significant increases | significant reduction | significant reduction | significantly increased | reduced | significantly increased | reduction | increase | inhibited | no significant difference | 60 | 30 | no apparent toxicity | significantly inhibited | well-tolerated | 30 | 
CC[C@H](CO)Nc1nc(NCc2ccccc2)c2ncn(C(C)C)c2n1 [Roscovitine, roscovitine] |  |  |  |  |  |  |  |  |  |  |  |  |  |  |  |  |  |  |  | 50
